# In patent US20250161245A1, “A MIXTURE OF UREA, BIURET AND N-CONTAINING BY-PRODUCTS CREATED DURING BIURET PRODUCTION AS A DIETARY NON-PROTEIN NITROGEN-SOURCE FOR RUMINANTS AND USES THEREOF” (Yara International ASA, priority 2022, published 2025):
# Legend:
# [1] = system: ruminal microorganisms; assay: dual-flow continuous culture fermenters simulating rumen fermentation (Example 2); format: cell-based, Holstein dairy cows; settings: NPN 0.51 wt. % urea or 0.55 wt. % UB of diet DM
# Procedure: In this example, an in vitro assay was performed using dual-flow continuous culture fermenters, aiming to simulate rumen fermentation.
# Eight 1320 ml dual-flow continuous culture fermenters were used in two replicated periods. Each period consisted out of 5 days for adaptation of the ruminal fluid to the treatments and 3 days for sampling. On the first day of each period, all fermenters were inoculated with undiluted ruminal fluid filtered through two layers of cheesecloth to remove the feed particles. The fermentation conditions were constant, i.e. • a temperature of 39° C., • a pH of 6.4±0.05 by infusion of 3 N HCl or 5 N NaOH, • anaerobiosis with continued infusion of N2 gas at a rate of 40 ml/min, and • continued infusion of artificial saliva to obtain liquid and solid dilution rates of 10%/h and 5%/h, respectively.
# The fermenters were fed 95 grams/day of dry matter of a diet formulated to meet or exceed current nutrients recommendations for lactating dairy cows, i.e. • 166 g/kg crude protein (CP), • 323 g/kg neutral detergent fiber (NDF), and • 201 g/kg acid detergent fiber (ADF),
# And were fed in three daily administrations, i.e. at 7, 15 and 23 o'clock with a forage: concentrate diet in a range of 53:47.
# Ruminal fluid was taken from two Holstein dairy cows fitted with ruminal cannulas fed with a 60:40 forage:concentrate diet with alfalfa and cracked grain (11 kg dry matter/cow/day). The afternoon before the ruminal extraction, the ruminant animals were not fed.
# The NPN-dietary treatments were as follows: • Control: basal diet to which 0.51 wt. % urea was added, with wt. % on dry matter basis, • Diet: basal diet to which 0.55 wt. % of the mixture according to the present disclosure, with composition as in example 1, was added, with wt. % on dry matter basis.
# On the second day of sampling, 4 ml of filtered fermenter fluid was taken 2 hours after the morning feeding to determine VFA-concentrations.
# During sampling days, the collection vessels were maintained at 4° C. to prevent microbial activity. Solid and liquid effluents from 3 sampling days were composited and mixed within the fermenter and homogenized. Subsamples were taken for the analyses of the volatile fatty acids (VFA). The remainder of the sample was lyophilized (freeze drying) and the dry samples were analyzed for DM, ash, N and purines to calculate bacterial nitrogen and organic matter content (OM).
# Bacterial cells were obtained from the fermenter flasks the last day of each experimental period. Solid and liquid associated bacteria were isolated using a combination several detachment procedures selected to obtain the maximum detachment without affecting the cell integrity. The bacterial cells were lyophilized and the dry samples were analyzed for dry matter (DM), ash, N and purines to calculate bacterial nitrogen.
# Effluent dry matter (DM) was determined by lyophilizing 300 ml aliquots in triplicate. The DM content of the diets and bacterial samples were determined by drying samples for 24 hours in an 103° C. forced air oven (see AOAC, 1990; method 950.01).
# Dry samples of diets, effluents and bacteria were ashed overnight at 550° C. in a muffle furnace (see AOAC, 1990, method 976.05) and organic matter (OM) was determined by difference. Total N of diets, effluents and bacterial samples were determined by a Kjeldhal method (AOAC, 1990; method 976.05). Sample crude protein (CP) was calculated as N×6.25. Effluent CP was determined in liquid samples. Crude protein degradation was calculated as the difference between CP in the diet minus CP in the effluent and expressed as wt. % of DM. The EMPS was determined by dividing bacterial N by fermented organic matter.
# The fiber components of the diets and the effluents were analyzed sequentially using a thermostable alpha-amylase and sodium sulfite and expressed without residual ash.
# The samples for the VFA-analysis were prepared as described by Jouany, J. P., and J. Senaud. […]
# [2] = system: ruminal fluid; assay: in vitro methane production, batch culture (Example 4); format: cell-based, Angus crossbred steers; settings: corn silage-based diet, 24 hours incubation
# Procedure: The amount of methane produced was determined by measuring total gas production and the contribution of methane to it. The production of gas was recorded using an Ankom Gas Monitoring System from Ankom Technologies. This system was adapted to 500 ml bottles during the entire fermentation process. The kinetics of the production was fitted to a Gompertz model to determine the rate of the total maximal gas production (M), fractional rate of gas produced (kf) and lag phase (L). A gas subsample was analyzed to measure methane concentration and calculate the total methane production during the fermentation. The concentration of methane was determined using a gas chromatograph Agilent 7820 GC from Agilent Technologies with flame ionization and a capillary column (Plot Fused Silica 25 m×0.32 mm, coating Molsieve 5A, Varian CP 7536 from Varian Inc.).
smiles,measurement,setting,value
"NC(N)=O [Urea, urea]",Acetate to propionate ratio,[1],3.5
same,CP degradation,[1],47.7 % of dry matter
same,EMPS,[1],35.7 g bacterial N/kg of fermented organic matter
same,True digestibility DM,[1],53.53 wt. % of DM
same,True digestibility OM,[1],52.95 wt. % of DM
same,VFA Acetate,[1],62.92
same,VFA Propionate,[1],18.18
same,methane production per g organic matter digested,[2],6.86 mM/g OMd
same,methane production per g organic matter incubated,[2],1.23 mM/g OMi
